{
  "source": "patent US20240293558A1",
  "about": "“KRAS INHIBITOR CONJUGATES” (Erasca, Inc., priority 2021, published 2024)",
  "target": "T1, KRAS 4B G12C protein (Homo sapiens, UniProt P01116, G12C)",
  "T1 construct": "made in house; host or cells: E. coli BL21",
  "experiment": "In vitro covalent adduct formation (CAF) assay, LC-MS",
  "type": "binding",
  "details": "5 μM KRAS 4B G12C, 10 μM compound, 22° C.",
  "experimental": "This Example provides a protocol for assessing covalent adduct formation (CAF) between the compounds provided herein and KRAS.\nIn vitro covalent adduct formation assay: Covalent adduct formation (CAF) reactions between Cys12 of the KRAS 4B G12C protein and embodiments of the application were measured in vitro using liquid chromatography-mass spectrometry (LC-MS).\nRecombinant Human KRAS 4B protein containing the G12C mutation was used in compound screening experiments. This protein contained 188 amino acids in total, including an N-terminal 6-Histidine tag, followed by a Tobacco Etch Virus (TEV) tag, followed by residues 1-169 of the native KRAS 4B sequence. The exact mass of the protein was 21,310 Da as determined by mass spectrometry. […]\nThe recombinant protein was expressed in E. coli BL21 cells and purified using affinity chromatography via a Ni-NTA column. […] The intact mass of the protein samples was measured by LC-MS using a QExactive+mass spectrometer (Thermo Scientific). An amount of 500 ng total protein was injected onto a C8 reverse phase column, eluted with a seven-minute gradient of 30%-90% acetonitrile/0.10% formic acid, and analyzed for intact mass by the mass spectrometer. Adducts identified were confirmed to be within 1 Dalton of the expected mass, and the relative ratios of free:adduct protein were used to quantify the percentage of protein bound by the compound. […]",
  "data": [
    {"smiles": "C=CC(=O)N1CCN(c2nc(OCCN3CCC4(CC3)CN(c3cc([C@H](C(=O)N5C[C@H](O)C[C@H]5C(=O)N[C@@H](C)c5ccc(-c6c(F)cccc6F)cc5)C(C)C)on3)C4)nc3c(F)c(-c4nc(N)cc(C)c4C(F)(F)F)c(Cl)cc23)[C@@H](C)C1", "note": "(atropisomer, axis not shown) [Example 201, (2S,4R)-1-((R)-2-(3-(7-(2-(((R)-4-((S)-4-acryloyl-2-methylpiperazin-1-yl)-7-(6-amino-4-methyl-3-(trifluoromethyl)pyridin-2-yl)-6-chloro-8-fluoroquinazolin-2-yl)oxy)ethyl)-2,7-diazaspiro[3.5]nonan-2-yl)isoxazol-5-yl)-3-methylbutanoyl)-N—((S)-1-(2′,6′-difluoro-[1,1′-biphenyl]-4-yl)ethyl)-4-hydroxypyrrolidine-2-carboxamide]", "values": [
      {"measurement": "% CAF at 5 min", "result": 98, "unit": "%"}
    ]}
  ]
}
